Assay results taken from article PMC4001449, “Thienoquinolines as Novel Disruptors of the PKCε/RACK2 Protein–Protein Interaction” (Journal of Medicinal Chemistry, 2014).

Tests used:
[1] = test system: PC-3 prostate adenocarcinoma cells; test: Cell proliferation (SRB assay), PC-3; format: cell-based, human; details: PC-3, 50 μM, 72 h
Protocol: HeLa cells containing a tetracycline/doxycycline-inducible constitutively active PKCε were described previously.[26] A PathDetect HeLa HLR cell line was obtained from Agilent, Technologies, Wokingham, U.K. PC-3 prostate adenocarcinoma cells were obtained from Dr. Helmut Klocker, Department of Urology, Innsbruck Medical University. For cell proliferation HeLa HLR and PC-3 cells were seeded at ∼10 000 cells per well in 96-well plates. After 4 h various concentrations of 8 were added and left for 72 h. Cell proliferation was determined by the SRB assay.[35]

PKCε = target: T1, PKCε (Homo sapiens, UniProt Q02156); test: PKC isozyme assay, PKCε; format: biochemical; details: 50 µM, Supp. Figure 2
T1 sequence (Q02156 1-737): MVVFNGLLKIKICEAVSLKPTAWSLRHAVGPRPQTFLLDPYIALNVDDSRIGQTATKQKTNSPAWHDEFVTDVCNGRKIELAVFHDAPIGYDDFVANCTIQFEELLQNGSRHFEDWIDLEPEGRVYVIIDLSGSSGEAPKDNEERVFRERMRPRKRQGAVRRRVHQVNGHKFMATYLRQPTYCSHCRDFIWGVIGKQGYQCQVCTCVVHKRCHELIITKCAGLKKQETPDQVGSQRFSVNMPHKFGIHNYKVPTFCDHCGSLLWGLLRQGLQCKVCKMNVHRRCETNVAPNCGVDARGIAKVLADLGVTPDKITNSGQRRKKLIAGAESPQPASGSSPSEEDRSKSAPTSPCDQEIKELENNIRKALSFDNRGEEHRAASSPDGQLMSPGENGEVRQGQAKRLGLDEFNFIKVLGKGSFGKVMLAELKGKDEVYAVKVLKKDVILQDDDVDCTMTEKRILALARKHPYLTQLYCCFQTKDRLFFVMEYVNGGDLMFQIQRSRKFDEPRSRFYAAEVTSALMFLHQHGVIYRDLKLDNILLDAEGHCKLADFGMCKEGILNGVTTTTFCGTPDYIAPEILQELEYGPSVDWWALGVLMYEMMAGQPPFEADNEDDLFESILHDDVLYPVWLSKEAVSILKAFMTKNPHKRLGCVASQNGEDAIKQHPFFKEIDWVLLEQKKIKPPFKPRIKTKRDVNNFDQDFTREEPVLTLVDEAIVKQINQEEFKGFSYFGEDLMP
Protocol: Supporting Information Figure 2. Effect of compound 8 on PKC isozymes. 50 µM of compound
8 were used in the PKC assays as described in Gruber et al., J. Biochem. 2011, 149, 331-336. *p
= 0.015, **p = 0.0028, ***p = 0.0007. The control is standardized (100%). Therefore, the
standard deviation for the control is 0.
(1 picture or pasted object on this page, not shown here)

PIM3 = PIM3 (Homo sapiens, UniProt Q86V86); test: Kinase profiling (Dundee), PIM3; format: biochemical; details: 25 μM solution
BTK = BTK (Homo sapiens, UniProt Q06187); test: Kinase profiling (Dundee), BTK; format: biochemical; details: 25 μM solution
BTK, sequence (Q06187 whole entry, species assumed): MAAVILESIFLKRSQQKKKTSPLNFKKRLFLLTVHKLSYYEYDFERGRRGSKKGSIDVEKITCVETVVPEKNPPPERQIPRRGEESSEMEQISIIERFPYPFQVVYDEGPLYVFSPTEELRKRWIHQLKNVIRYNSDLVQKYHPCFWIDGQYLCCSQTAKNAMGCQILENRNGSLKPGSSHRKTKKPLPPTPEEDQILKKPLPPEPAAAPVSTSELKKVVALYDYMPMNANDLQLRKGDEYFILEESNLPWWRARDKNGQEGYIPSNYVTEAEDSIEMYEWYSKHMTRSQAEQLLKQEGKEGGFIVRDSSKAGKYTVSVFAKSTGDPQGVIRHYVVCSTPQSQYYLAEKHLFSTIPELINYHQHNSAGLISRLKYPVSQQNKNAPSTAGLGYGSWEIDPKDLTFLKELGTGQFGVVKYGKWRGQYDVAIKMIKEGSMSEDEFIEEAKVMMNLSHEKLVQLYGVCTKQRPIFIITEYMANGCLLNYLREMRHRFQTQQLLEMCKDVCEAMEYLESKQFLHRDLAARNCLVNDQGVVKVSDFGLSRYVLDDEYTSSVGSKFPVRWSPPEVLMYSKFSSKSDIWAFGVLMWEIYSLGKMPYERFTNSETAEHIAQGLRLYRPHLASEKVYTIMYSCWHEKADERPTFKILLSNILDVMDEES

Inhibition of PKCε in vitro (PKCε): does not inhibit | PIM3 activity, % of control (PIM3): 46 % of control | BTK activity, % of control (BTK): 42 % of control
Structure (SMILES): CC(=O)c1cccc(NC(=O)c2sc3nc4cc5c(cc4cc3c2N)OCCO5)c1 [Compound 8, N-(3-acetylphenyl)-9-amino-2,3-dihydro-1,4-dioxino[2,3-g]thieno[2,3-b]quinoline-8-carboxamide]
Inhibition of cell proliferation [1]: did not show any inhibition
